Measurements reported in patent US20260234144A1 (TAY THERAPEUTICS LIMITED, priority 2023, published 2026).

System: R223X stop codon in the mutated luciferase gene, ADXC8 luciferase reporter cell line
Experiment: cells
Assay type: cell-based
Details: ADXC8 cells, 24 hours; for Emax / EC (100% of 200 uM G418 response): 24 h; for Emax: read-out: Fold Over Control, maximum fold response relative to 200 μM G418; for EC (100% of 200 uM G418 response): read-out: pC100%, negative logarithm of the concentration giving the same response as 200 μM G418; for Fold Over Control: maximum fold response relative to 200 μM G418; for pC100%: negative logarithm of the concentration giving the same response as 200 μM G418
Method: The read-through activity of compounds was assessed using the ADXC8 luciferase reporter cell line (generated as described in McElroy et al. PLoS Biology (2013), 11, e1001593). […] The amount of luciferase is measured by adding a lysis buffer containing luciferin substrate and detecting luminescence using the following protocol:
ADXC8 cells in assay media (DMEM+10% FBS) were seeded into 96-well tissue culture treated white plates (Greiner) to a density of 13,000 cells per well and incubated for 24 hours at 37° C. in an atmosphere of 5% CO2. […] Plates were incubated for a further 24 hours at 37° C. in an atmosphere of 5% CO2. Cells treated with 200 μM G418 (with 1% DMSO) were used as a positive control.
Cell viability and firefly luciferase activity were measured in the same assay wells. CellTiter-Fluor™ reagent was prepared as per manufacturer's instructions (Promega E7120) and 20 μl of 5× CellTiter-Fluor™ reagent was added to all wells, briefly mixed by orbital shaking (300-500 rpm for −30 seconds) and the plates incubated for 30-45 minutes at 37° C. in an atmosphere of 5% C02. Cell viability was measured by monitoring fluorescence on a CLARIOstar® plate reader (BMG Labtech). Cells containing 1% DMSO were used as a positive control and cells with 400 μM Doxorubicin were used as negative control to define 100 and 0% respectively. ONE-Glo™ luciferase assay buffer (Promega E7120) was prepared according to manufacturer's instructions and 100 μl of luciferase reagent was added to each well and the plate incubated at RT for 3 mins before measuring the luminescence on the CLARIOstar® plate reader (BMG Labtech). Cells treated with 200 μM G418 (with 1% DMSO) were used as a positive control and arbitrarily assigned a value of 100%. Cells treated with 1% DMSO were used as the negative control to define 0% response.
Concentration effect curves were analysed using non-linear regression using the CDD Vault from Collaborative Drug Discovery (Burlingame, CA). […] The bottom and top of the curves were constrained to 0 and the maximum measured response respectively. From the fitted curves, the software derived C100% values (the concentration giving the same response as 200 μM G418) for each compound. The negative logarithm of C100% is reported as pC100% (Table 1). In addition to pC100% values, the maximum fold response relative to 200 μM G418 (Fold over Control) was also captured (Table 1). A pC100% categorisation of ‘-’ in Table 1 represents examples in which a pC100% response was not reached when assayed at a concentration of 100 μM. A pC100% categorisation of ‘*’ in Table 1 represents examples in which a pC100% response was not reached when assayed at a concentration of 30 μM.

| SMILES | Emax [%] | EC (100% of 200 uM G418 response) [µM] | Fold Over Control | pC100% |
| --- | --- | --- | --- | --- |
| CNCCNc1nc(NC2CCN(C)CC2)nc2nc(C)cc(C)c12 [Example 330] | 0 to 100 | > 31.6 |  |  |
| CN1CCC(Nc2nc(N)c3ccc(-c4cccc(C(N)=O)c4)nc3n2)CC1 [Example 70] | 100 to 3000 | 10 to 100 |  |  |
| Cc1cc(C)c2c(N)nc(NC3CCCN(C(=O)OC(C)(C)C)CC3)nc2n1 (centres unmarked) [Example 131, tert-butyl 4-((4-amino-5,7-dimethylpyrido[2,3-d]pyrimidin-2-yl)amino)azepane-1-carboxylate] | 0 to 100 | > 100 |  |  |
| COc1ccc(CNc2ccc3c(N)nc(NC4CCN(C)CC4)nc3n2)c(OC)c1 [Example 41, N^7-(2,4-dimethoxybenzyl)-N2-(1-methylpiperidin-4-yl)pyrido[2,3-d]pyrimidine-2,4,7-triamine] | 0 to 100 | > 100 |  |  |
| COC(C)c1ccnc2nc(NC3CCN(C)CC3)nc(N)c12 (centres unmarked) [Example 252, 5-(1-methoxyethyl)-N^2-(1-methylpiperidin-4-yl)pyrido[2,3-d]pyrimidine-2,4-diamine] | 0 to 100 | > 100 |  |  |
| Cc1cc(C)c2c(N)nc(NC3CC4(CCNCC4)C3)nc2n1 [Example 200] | 0 to 100 | > 31.6 |  |  |
| Cc1cc(-c2ccccc2)nc2nc(NC3CCN(C)CC3)nc(N)c12 [Example 16, 5-methyl-N^2-(1-methylpiperidin-4-yl)-7-phenylpyrido[2,3-d]pyrimidine-2,4-diamine] |  | 0.1 to 1 |  |  |
| Cc1cc(C)c2c(N)nc(NCCN(C)c3ccccc3)nc2n1 [Example 143] | 0 to 100 | > 31.6 |  |  |
| Cc1cc(C)c2c(Nc3ccccc3)nc(NC3CCN(C)CC3)nc2n1 [Example 267] | 0 to 100 | > 31.6 |  |  |
| Cc1cc(C)c2c(N)nc(NC3CCN(Cc4ccc(S(C)(=O)=O)cc4)CC3)nc2n1 [Example 497] | 100 to 3000 | 10 to 100 |  |  |
| CN1CCC(Nc2nc(N)c3ccc(-c4ccnnc4)nc3n2)CC1 [Example 61] | 0 to 100 | > 100 |  |  |
| CNc1nc(N[C@@]2(C)CCN(C)C2)nc2nc(C)cc(C)c12 [Example 638] | 0 to 100 | > 31.6 |  |  |
| Cc1c2c(nc3nc(NC4CCN(Cc5ccc(C(=O)O)cc5)CC4)nc(N)c13)CCC2 [Example 673] | 100 to 3000 | 1 to 10 |  |  |
| Cc1cc(C)c2c(N)nc(NC3CCN(Cc4ncc[nH]4)CC3)nc2n1 [Example 487] | 100 to 3000 | 1 to 10 |  |  |
| Cc1cc(C)c2c(N(C)C3CC3)nc(NC3CCN(C)CC3)nc2n1 [Example 265] | 0 to 100 | > 100 |  |  |
| Cc1cc(C)c2c(N)nc(NC3CCN(Cc4cccc(S(C)(=O)=O)c4)CC3)nc2n1 [Example 496] | 100 to 3000 | 10 to 100 |  |  |
| COCc1ccc(-c2ccc3c(N)nc(NC4CCN(C)CC4)nc3n2)cc1 [Example 78] | 100 to 3000 | 1 to 10 |  |  |
| Cc1cc(C)c2c(N)cc(N[C@@H]3CCNC3)nc2n1 [Example 255, (R)-5,7-dimethyl-N^2-(pyrrolidin-3-yl)-1,8-naphthyridine-2,4-diamine] |  | 0.1 to 1 |  |  |
| Cc1cc(C)c2c(N)nc(N[C@@H]3CCCC[C@H]3N(C)C)nc2n1 [Example 181] | 0 to 100 | > 31.6 |  |  |
| Cc1cc(C)c2c(N)nc(N[C@@H]3CN[C@H](C)C3)nc2n1 [Example 348] | 100 to 3000 | 10 to 100 |  |  |
| CSc1ccc(-c2ccc3c(N)nc(NC4CCN(C)CC4)nc3n2)cc1 [Example 103] |  | 1 to 10 |  |  |
| CNc1nc(N[C@@H]2C[C@H](C)N(C)C2)nc2nc(C)cc(C)c12 [Example 367] |  | 1 to 10 |  |  |
| CN1CCC(Nc2nc(N)c3ccc(-c4cccc(C#N)c4)nc3n2)CC1 [Example 112] |  | 1 to 10 |  |  |
| Cc1cc(C)c2c(NCc3ccccn3)nc(NC3CCN(C)CC3)nc2n1 [Example 317] | 100 to 3000 | 10 to 100 |  |  |

| SMILES | Emax [%] | EC (100% of 200 uM G418 response) [µM] | Fold Over Control | pC100% |
| --- | --- | --- | --- | --- |
| CNc1nc(NC2CNCC2C#N)nc2nc(C)cc(C)c12 (single isomer, unassigned) [Example 450] |  |  | ## (Fold over Ctrl > 1 ≤ 30) | ++ (pC100% > 5.0 ≤ 6.0) |
| Cc1cc(C)c2c(N)nc(NCC3CCN(C(=O)OC(C)(C)C)CC3)nc2n1 [Example 133] | 0 to 100 | > 100 |  |  |
| C#Cc1cnc2nc(NC3CCN(C)CC3)nc(N)c2c1 [Example 278] | 0 to 100 | > 31.6 |  |  |
| CN1CCC(Nc2nc(N)c3ccc(C4CCCC4)nc3n2)CC1 [Example 310] |  | 1 to 10 |  |  |
| CNc1cc(NC2CCN(C)CC2)nc2nc(C)cc(C)c12 [Example 261, N^4,5,7-trimethyl-N^2-(1-methylpiperidin-4-yl)-1,8-naphthyridine-2,4-diamine] | 100 to 3000 | 1 to 10 |  |  |
| CNc1nc(N[C@H]2CNC[C@H]2F)nc2nc(C)cc(C)c12 [Example 335] | 100 to 3000 | 1 to 10 |  |  |
| CNc1nc(NC2CNCC2C(F)F)nc2nc(C)cc(C)c12 (single isomer, unassigned) [Example 430] |  |  |  | ++ (pC100% > 5.0 ≤ 6.0) |
| CNc1nc(NC2CCCN3CCCC23)nc2nc(C)cc(C)c12 (centres unmarked) [Example 597] |  |  |  | ++ (pC100% > 5.0 ≤ 6.0) |
| CN1CCC(Nc2nc(N)c3ccc(-c4cncnc4)nc3n2)CC1 [Example 98] | 0 to 100 | > 100 |  |  |
| Cc1cc(C)c2c(N)nc(NC3CCN(Cc4nccs4)CC3)nc2n1 [Example 463] | 100 to 3000 | 1 to 10 |  |  |
| Cc1cc(C)c2c(N)cc(NCCCCN(C)C)nc2n1 [Example 254, N^2-(4-(dimethylamino)butyl)-5,7-dimethyl-1,8-naphthyridine-2,4-diamine] | 100 to 3000 | 10 to 100 |  |  |
| CN1CCC(Nc2nc(N)c3ccc(C(F)(F)F)nc3n2)CC1 [Example 18, N^2-(1-methylpiperidin-4-yl)-7-(trifluoromethyl)pyrido[2,3-d]pyrimidine-2,4-diamine] | 100 to 3000 | 10 to 100 |  |  |
| CNc1nc(N[C@H]2CN(Cc3ccccc3)C[C@@H]2O)nc2nc(C)cc(C)c12 [Example 622] | 100 to 3000 | 1 to 10 |  |  |
| CNc1nc(N[C@H]2CNC[C@H]2O)nc2nc(C)c3c(c12)CCC3 [Example 345] | 100 to 3000 | 10 to 100 |  |  |
| CNc1nc(N[C@H]2CCCNCC2)nc2nc(C)cc(C)c12 [Example 387] | 100 to 3000 | 1 to 10 |  |  |
| CNc1nc(N[C@@H]2CN(C)C[C@@H]2O)nc2nc3c(c(C)c12)CCC3 [Example 658] | 100 to 3000 | 1 to 10 |  |  |
| CNc1nc(NC2CNCC2(F)F)nc2nc(C)cc(C)c12 (single isomer, unassigned) [Example 437] |  |  | ## (Fold over Ctrl > 1 ≤ 30) | + (pC100% > 4.0 ≤ 5.0) |
| Cc1cc(C)c2c(N)nc(NCC(C)(C)CN(C)C)nc2n1 [Example 149] | 0 to 100 | > 31.6 |  |  |
| Cc1cc(C)c2c(N)nc(NC[C@@H]3CCNC3)nc2n1 [Example 217] |  | 1 to 10 |  |  |
| Cc1cc(C)c2c(N)nc(N[C@@H]3CCN(C)C3)nc2n1 [Example 14, (R)-5,7-dimethyl-N^2-(1-methylpyrrolidin-3-yl)pyrido[2,3-d]pyrimidine-2,4-diamine] | 100 to 3000 | 1 to 10 |  |  |
| Cc1cc(C)c2c(N)nc(N[C@@H]3CNC[C@H]3O)nc2n1 [Example 302] | 100 to 3000 | 1 to 10 |  |  |
| COc1ccc(CN2CCC(Nc3nc(N)c4c(C)cc(C)nc4n3)CC2)cc1 [Example 478] | 100 to 3000 | 0.1 to 1 |  |  |
| CN1CCC(Nc2nc(N)c3ccc(-c4ccccc4C#N)nc3n2)CC1 [Example 118] |  | 10 to 100 |  |  |
| COCCN1CCC(Nc2nc(N)c3c(C)cc(C)nc3n2)CC1 [Example 172] | 100 to 3000 | 10 to 100 |  |  |
